Results taken from patent publication US10265310B2, “6-membered cyclic amines or lactames substituted with urea and phenyl” (GRÜNENTHAL GMBH, priority 2016, dated 2019).

Key:
FPR2 = FPR2 (Homo sapiens (Human), UniProt P25090); test: Agonistic activity (calcium FLIPR) in hFPR2-Aq-CHO cells; assay type: cell-based; conditions: FLIPR Calcium 5 dye fluorescence, agonistic response
Description: (§1) Cells (hFPR1-Gα15-CHO or hFPR2-Aq-CHO) are suspended in 10 mL of respective complete medium (F12(1×) HAM media; 10% HI-FBS; 0.1 mg/ml Hygromycin B and 0.2 mg/ml Zeocin [for hFPR1 only]; 0.4 mg/mL Geneticin and 0.25 mg/ml Zeocin [for hFPR2-Aq only]) and viability is checked using Trypan Blue exclusion. After washing, the cells are plated at 10,000 cells per well in 40 μL complete medium in a 384-well sterile clear bottom black plate and incubated in a 5% CO2 incubator at 37° C. for 18 hours. Plating media is removed from each well by decanting and gentle tapping before 30 μL of 0.5× Calcium 5 dye solution (0.5×FLIPR Calcium 5 dye (Molecular devices, R8186)); HBSS; 20 mM HEPES; 2.5 mM Probenecid; 0.025% Pluronic F-127; pH adjusted to 7.4) is added to each well and the plate is then incubated at 37° C. for 30 minutes. For the assay the plate is equilibrated at room temperature for 10 minutes before placing it in the FLIPR. Compounds are dissolved in DMSO and serially diluted over an 11 point half log (3.16 fold) dilution (2 mM to 20 nM). Compounds are then diluted 1:50 in assay buffer (HBSS; 20 mM HEPES; 2.5 mM Probenecid; 0.05% gelatin; 0.1% BSA; pH adjusted to 7.4) just before performing the assay. Compounds are finally added to the respective wells of the cell plate (final assay concentration 10 μM to 100 pM) using the FLIPR (e.g. FLIPR-Tetra, Molecular Devices) and fluorescence readings are captured for 5 minutes. The increase in fluorescence from the basal reading in the presence of the compounds is compared with that of the control wells (wells having no compound) to calculate the activity of the compounds. The EC50 values of the compounds can be determined using e.g. Graph pad Prism software.
(§2) Assay Method for Measuring Agonistic Activity of Compounds in hFPR1-Gα15-CHO and hFPR2-Aq-CHO Cell
(§3) Cryo-vial containing 6×10^6 cells (hFPR1-Gα15-CHO or hFPR2-Aq-CHO) was thawed in a 37° C. water bath. Cells were suspended in 10 ml of respective complete growth media (F12(1×) HAM media (Gibco; Cat#11765); 10% HI-FBS (Gibco; Cat#10082); 0.1 mg/ml Hygromycin B (Invitrogen; Cat#10687-010) [for hFPR1 only]; 0.2 mg/ml Zeocin (Invitrogen; Cat#R25001) [for hFPR1 only]; 0.4 mg/ml Geneticin (Gibco; Cat#10131) [for hFPR2-Aq only]; 0.25 mg/ml Zeocin (Invitrogen; Cat#R25001) [for hFPR2-Aq only]) in a 15 ml centrifuge tube. The cell viability was checked with the help of Trypan Blue dye. Upon washing the cells, those were plated in a 384-well sterile clear bottom black plate (Greiner Bioone Cat#781091) so that, each well contained 10,000 cells in 40 μl complete growth media. The plate was incubated in a 5% CO2 incubator at 37° C. for 18 hours.
(§4) Before assay on the next day, the cell plating media was removed from each well of the plate by decanting and gentle tapping. 30 μl, 0.11 of 0.5× Calcium 5 dye solution (0.5×FLIPR Calcium 5 dye (Molecular devices Cat# R8186); HBSS (Invitrogen; Cat#14025); 20 mM HEPES (Sigma; Cat#H0887); 2.5 mM Probenecid (Sigma; Cat#P8761); 0.025% Pluronic F-127 (Sigma; Cat#P2443); pH adjusted to 7.4) was added to each well. The plate was then incubated at 37° C. for 30 minutes. Following which the plate was equilibrated at room temperature for 10 minutes before placing it in a 384 well FLIPR for assay. Compounds were dissolved in DMSO and serially diluted following 11 point half log (3.16 fold) dilution with a starting concentration of 2 mM (Final assay concentration 10 μM). Aliquots of above mentioned each dilution was mixed with assay buffer (HBSS (Invitrogen; Cat#14025); 20 mM HEPES (Sigma; Cat#H0887); 2.5 mM Probenecid (Sigma; Cat#P8761); 0.05% gelatin (Sigma; Cat#G1890); 0.1% BSA (Sigma; Cat#A3059); pH adjusted to 7.4) just before performing the assay. Compounds were added to the respective wells of the assay ready cell plate with the help of the FLIPR (FLIPR Tetra) and fluorescence readings were captured for 5 minutes to measure any agonistic response of the compounds. […]

FPR1 = FPR1 (Homo sapiens (Human), UniProt P21462); test: Agonistic activity (calcium FLIPR) in hFPR1-Gα15-CHO cells; assay type: cell-based; conditions: FLIPR Calcium 5 dye fluorescence, agonistic response
Description: as §1, §2, §3, §4

Chain of FPR2 (P25090 whole entry): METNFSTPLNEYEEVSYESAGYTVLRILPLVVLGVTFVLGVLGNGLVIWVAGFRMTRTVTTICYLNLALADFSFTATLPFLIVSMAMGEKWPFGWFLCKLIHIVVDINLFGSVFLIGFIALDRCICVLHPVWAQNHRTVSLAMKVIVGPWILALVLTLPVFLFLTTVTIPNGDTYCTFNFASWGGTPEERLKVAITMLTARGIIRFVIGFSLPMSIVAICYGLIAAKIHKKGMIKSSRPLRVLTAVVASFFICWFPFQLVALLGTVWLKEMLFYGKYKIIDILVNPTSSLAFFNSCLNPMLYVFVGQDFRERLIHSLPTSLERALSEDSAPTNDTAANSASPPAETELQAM
Chain of FPR1 (P21462 whole entry): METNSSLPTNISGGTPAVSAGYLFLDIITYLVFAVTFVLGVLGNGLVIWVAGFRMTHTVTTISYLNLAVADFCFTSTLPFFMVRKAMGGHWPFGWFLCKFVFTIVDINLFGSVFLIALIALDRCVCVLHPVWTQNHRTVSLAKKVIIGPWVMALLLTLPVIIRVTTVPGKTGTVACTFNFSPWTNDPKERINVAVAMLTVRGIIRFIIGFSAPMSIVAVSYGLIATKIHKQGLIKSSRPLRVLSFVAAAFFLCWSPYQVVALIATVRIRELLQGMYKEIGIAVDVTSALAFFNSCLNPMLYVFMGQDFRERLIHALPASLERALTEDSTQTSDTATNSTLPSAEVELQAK

## COc1cc(F)c([C@@H]2CC(=O)NC[C@H]2NC(=O)Nc2ccc(Cl)c(O)c2)c(F)c1 (racemic) [Example 57, rac-trans-1-(4-Chloro-3-hydroxy-phenyl)-3-[4-(2,6-difluoro-4-methoxy-phenyl)-6-oxo-piperidin-3-yl]-urea]
FPR2
  EC50: < 1 nM
FPR1
  EC50: 1 to 1000 nM

## COc1cc(F)c([C@@H]2CC(=O)NC[C@H]2NC(=O)Nc2ccc(Cl)c(F)c2)c(F)c1 (racemic) [Example 58, rac-trans-1-(4-Chloro-3-fluoro-phenyl)-3-[4-(2,6-difluoro-4-methoxy-phenyl)-6-oxo-piperidin-3-yl]-urea]
FPR2
  EC50: 1 to 1000 nM
FPR1
  EC50: 1 to 1000 nM

## CCc1cc(F)c([C@@H]2CC(=O)NC[C@H]2NC(=O)Nc2ccc(Cl)cc2)c(F)c1 (racemic) [Example 69, rac-trans-1-(4-chlorophenyl)-3-(4-(4-ethyl-2,6-difluorophenyl)-6-oxopiperidin-3-yl)urea]
FPR2
  EC50: 1 to 1000 nM
FPR1
  EC50: 1 to 1000 nM

## O=C1C[C@@H](c2c(F)cc(OC(F)F)cc2F)[C@H](NC(=O)Nc2ccc(Cl)cc2)CN1 (racemic) [Example 70, rac-trans-1-(4-chlorophenyl)-3-(4-(4-(difluoromethoxy)-2,6-difluorophenyl)-6-oxopiperidin-3-yl)urea]
FPR2
  EC50: 1 to 1000 nM
FPR1
  EC50: 1 to 1000 nM

## CCc1ccc([C@@H]2CC(=O)NC[C@H]2NC(=O)Nc2ccc(Cl)cc2)cc1 (racemic) [Example 73, rac-trans-1-(4-chlorophenyl)-3-(4-(4-ethylphenyl)-6-oxopiperidin-3-yl)urea]
FPR2
  EC50: 1 to 1000 nM
FPR1
  EC50: 1 to 1000 nM

## O=C1C[C@@H](c2ccc(OC(F)F)cc2)[C@H](NC(=O)Nc2ccc(Cl)cc2)CN1 (racemic) [Example 74, rac-trans-1-(4-chlorophenyl)-3-(4-(4-(difluoromethoxy)phenyl)-6-oxopiperidin-3-yl)urea]
FPR2
  EC50: 1 to 1000 nM
FPR1
  EC50: 1 to 1000 nM

## CS(=O)(=O)c1ccc([C@@H]2CC(=O)NC[C@H]2NC(=O)Nc2ccc(Cl)cc2)cc1 (racemic) [Example 75, rac-trans-1-(4-chlorophenyl)-3-(4-(4-(methylsulfonyl)phenyl)-6-oxopiperidin-3-yl)urea]
FPR2
  EC50: 1 to 1000 nM
FPR1
  EC50: 1 to 1000 nM

## COc1ccc(C2C(NC(=O)Nc3ccc(Cl)cc3)CCCN2C)cc1 (single isomer, unassigned; dia1) [Example 89, dia1-1-(4-chlorophenyl)-3-(2-(4-methoxyphenyl)-1-methylpiperidin-3-yl)urea]
FPR2
  EC50: 1 to 1000 nM
FPR1
  EC50: 1 to 1000 nM

## COc1cc(F)c(C2C(NC(=O)Nc3ccc(Cl)cc3)CCCN2C)c(F)c1 (single isomer, unassigned; dia2) [Example 88, dia2-1-(4-chlorophenyl)-3-(2-(2,6-difluoro-4-methoxyphenyl)-1-methylpiperidin-3-yl)urea]
FPR2
  EC50: 1 to 1000 nM
FPR1
  EC50: 1 to 1000 nM

## COc1ccc(C2C(NC(=O)Nc3ccc(Cl)cc3)CCCN2C)cc1 (single isomer, unassigned; dia2) [Example 90, dia2-1-(4-chlorophenyl)-3-(2-(4-methoxyphenyl)-1-methylpiperidin-3-yl)urea]
FPR2
  EC50: 1 to 1000 nM
FPR1
  EC50: 1 to 1000 nM

## COc1cc(F)c(C2CCNCC2NC(=O)Nc2ccc(Cl)cc2)c(F)c1 (single isomer, unassigned; ent1) [Example 36, trans-ent1-1-(4-chlorophenyl)-3-(4-(2,6-difluoro-4-methoxyphenyl)piperidin-3-yl)urea]
FPR2
  EC50: < 1 nM
FPR1
  EC50: 1 to 1000 nM

## COc1cc(F)c(C2CCN(C(=O)C3CC3)CC2NC(=O)Nc2ccc(Cl)cc2)c(F)c1 (single isomer, unassigned; ent1) [Example 39, trans-ent1-1-(4-chlorophenyl)-3-(1-(cyclopropanecarbonyl)-4-(2,6-difluoro-4-methoxyphenyl)piperidin-3-yl)urea]
FPR2
  EC50: < 1 nM
FPR1
  EC50: 1 to 1000 nM

## COc1ccc(C2CC(=O)NCC2NC(=O)Nc2ccc(Cl)cc2)c(F)c1 (single isomer, unassigned; ent1) [Example 42, trans-ent1-1-(4-chlorophenyl)-3-(4-(2-fluoro-4-methoxyphenyl)-6-oxopiperidin-3-yl)urea]
FPR2
  EC50: < 1 nM
FPR1
  EC50: 1 to 1000 nM

## COc1cc(F)c(C2CC(=O)NCC2NC(=O)Nc2ccncc2)c(F)c1 (single isomer, unassigned; ent1) [Example 47, ent1-1-(4-(2,6-difluoro-4-methoxyphenyl)-6-oxopiperidin-3-yl)-3-(pyridin-4-yl)urea]
FPR2
  EC50: 1 to 1000 nM
FPR1
  EC50: 1 to 1000 nM

## COc1cc(F)c(C2CC(=O)NCC2NC(=O)Nc2ccc(Cl)cc2)c(F)c1 (single isomer, unassigned; ent1) [Example 49, trans-ent1-1-(4-chlorophenyl)-3-(4-(2,6-difluoro-4-methoxyphenyl)-6-oxopiperidin-3-yl)urea]
FPR2
  EC50: 1 to 1000 nM
FPR1
  EC50: 1 to 1000 nM

## COCCN1CC(NC(=O)Nc2ccc(Cl)cc2)C(c2ccc(OC)cc2F)CC1=O (single isomer, unassigned; ent1) [Example 59, trans-ent1-1-(4-Chlorophenyl)-3-[4-(2-fluoro-4-methoxy-phenyl)-1-(2-methoxy-ethyl)-6-oxo-piperidin-3-yl]-urea]
FPR2
  EC50: < 1 nM
FPR1
  EC50: 1 to 1000 nM

## COc1ccc(C2CC(=O)N(CC(F)F)CC2NC(=O)Nc2ccc(Cl)cc2)c(F)c1 (single isomer, unassigned; ent1) [Example 61, trans-ent1-1-(4-Chlorophenyl)-3-[1-(2,2-difluoro-ethyl)-4-(2-fluoro-4-methoxy-phenyl)-6-oxo-piperidin-3-yl]-urea]
FPR2
  EC50: < 1 nM
FPR1
  EC50: < 1 nM

## COCCN1CC(NC(=O)Nc2ccc(Cl)cc2)C(c2ccc(F)cc2F)CC1=O (single isomer, unassigned; ent1) [Example 63, trans-ent1-1-(4-Chlorophenyl)-3-[4-(2,4-difluoro-phenyl)-1-(2-methoxy-ethyl)-6-oxo-piperidin-3-yl]-urea]
FPR2
  EC50: 1 to 1000 nM
FPR1
  EC50: 1 to 1000 nM

## O=C(Nc1ccc(Cl)cc1)NC1CN(CC(F)F)C(=O)CC1c1ccc(F)cc1F (single isomer, unassigned; ent1) [Example 65, trans-ent1-1-(4-Chlorophenyl)-3-[1-(2,2-difluoro-ethyl)-4-(2,4-difluoro-phenyl)-6-oxo-piperidin-3-yl]-urea]
FPR2
  EC50: 1 to 1000 nM
FPR1
  EC50: 1 to 1000 nM

## O=C1CC(c2ccc(F)cc2F)C(NC(=O)Nc2ccc(Cl)cc2)CN1 (single isomer, unassigned; ent1) [Example 67, trans-ent1-1-(4-Chlorophenyl)-3-[4-(2,4-difluoro-phenyl)-6-oxo-piperidin-3-yl]-urea]
FPR2
  EC50: 1 to 1000 nM
FPR1
  EC50: 1 to 1000 nM

## COc1ccc(C2CC(=O)NCC2NC(=O)Nc2ccc(Cl)cc2)cc1 (single isomer, unassigned; ent1) [Example 76, trans-ent1-1-(4-chlorophenyl)-3-(4-(4-methoxyphenyl)-6-oxopiperidin-3-yl)urea]
FPR2
  EC50: < 1 nM
FPR1
  EC50: 1 to 1000 nM

## O=C(Nc1ccc(Cl)cc1)NC1CNCCC1c1ccccc1 (single isomer, unassigned; ent1) [Example 80, trans-ent1-1-(4-chlorophenyl)-3-(4-phenylpiperidin-3-yl)urea]
FPR2
  EC50: 1 to 1000 nM
FPR1
  EC50: 1 to 1000 nM
